Experimental data reported in US10857236B2, “Sustained release nanocomposite, a process for producing the same and use thereof” (SZEGEDI TUDOMÁNYEGYETEM, priority 2015, dated 2020).
Each block holds one molecule with its values, some of them ahead of it.

Tests used:
[1] = stability study of KYNA in MQ with and without 150 mM NaCl and in buffer
Experimental: New types of nanocomposites have been prepared within physiological conditions, in the nano-size range for the purpose of crossing the pharmaceutically active ingredients through the blood-brain barrier. […] The amount of the material constituting the composites, than the conditions of the preparation were determined. Stability studies were performed for the active ingredients by ensuring various conditions (pH=3 to 8 in physiological solution and without said physiological solution, in both phosphate and HEPES buffers). […]
The release tests were made in case of KYNA in PBS buffer at pH=7.4. (physiological solution). […]

[2] = system: microvessel rat brain endothelial cells; test: KYNA permeability in in vitro blood-brain barrier model; format: in vitro ADME; details: 20 μM KYNA final concentration, 1 hour, corrected for empty filters
Experimental: (§1) The permeability of KYNA through the blood-brain barrier from BSA/KYNA/PAH nanocapsules was determined by means of an in vitro blood-brain barrier model. The description of the model is the following: microvessel rat brain endothelial cells were isolated from 2 to 3 weeks old Wistar animals by means of a method described earlier (Wilhelm és munkatársai, 2011). After the removal of the meninges, the brain tissue was dissectioned to small pieces, then it was digested by type 2 collagenase and collagenase/dispase, finally it was centrifuged on percoll gradient. The microvessel fragments were plated on collagenIV/fibronectin-coated Petri dishes and were cultured in DMEM/F12 in the presence of plasma serum and growth factors. […]
(§2) From these samples the concentration of KYNA was determined using an Agilent 1100 HPLC-MS system (Agilent Technologies, Santa Clara, Calif., USA).
(§3) To calculate the permeability coefficient the following formulae were applied: PappdQ/(dT×A×C0), wherein dQ stands for the crossed amount of the material, dT stands for the incubation period of time (1 hour), A stands for the surface of the filter and C0 stands for the starting concentration (20 μM). The values thus calculated were compared to the values measured on empty (not containing cells) filters according to the following method: […]).

[3] = in vitro drug release in Franz cell (vertical diffusion cell), kinetic models; format: physicochemical
Experimental: FIG. 7: A schematic figure of the Franz-cell (vertical diffusion cell) with which the in vitro drug release experiments were carried out. […] The active ingredient release tests were made at two temperatures: at 25 and 37.5° C. (FIGS. 7 and 8).

[4] = system: somatosensory evoked potentials (SEPs); test: in vivo amplitudes of somatosensory evoked potentials after peripheral administration; set-up: species or system male Wistar rats; details: intraperitoneal administration, 300 mg/kg, n=5
From the text: The preparation of the corresponding composite (FIG. 1) was accomplished with the following parameters. […] At a neutral pH the compact structure of the protein offers an opportunity to enclose large amount of kynurenic acid. In the “heart shaped” conformation of the BSA, the hydrophobic parts directed inside the conformation can form hydrogen-bridge, hydrophobic, furthermore ππ interactions with the KYNA molecule. […] After the in vitro drug release experiments the KYNA permeability was investigated with the help of an in vitro blood-brain barrier model. […] The animal experiments were performed on male Wistar rats (300 g, n=30). During the tests the effect of the peripherally administered KYNA was investigated in the central nervous system.

[5] = KYNA permeability in in vitro blood-brain barrier model; format: in vitro ADME, rat; details: Wistar, rat, 20 μM KYNA final concentration, corrected for empty filters, read-out: permeability coefficient Pe
Experimental: as §1, §2, §3

[6] = DOPA containing composites, 25° C.
[7] = DOPA containing composites, 37.5° C.
[8] = KYNA containing composites, 25° C.
[9] = KYNA containing composites, 37.5° C.
[10] = IBU containing composites, 25° C.
[11] = IBU containing composites, 37.5° C.

Compound: O=C([O-])c1ccccc1-c1c2ccc(=O)cc-2oc2cc([O-])ccc12.[Na+].[Na+] [Na-fluoresceine]
permeability coefficient Pe [2]: 2.96*10^−6 cm/s

Compound: Nc1ccccc1C(=O)C[C@H](N)C(=O)O [L-KYN, L-kynurenin]
change of amplitude of somatosensory evoked potentials [4]: no significant change

Compound: CC(C)Cc1ccc(C(C)C(=O)O)cc1 (stereo not shown) [IBU, ibuprofen]
Release rate, depending on the concentration, first-order kd [3, 10]: 0.0064 s⁻¹
Release rate, diffusion controlled, Higuchi kd [3, 10]: 5.6 * 10^−0 s^−1/2
Release rate, not depending on the concentration, zero-order kd [3, 10]: 0.5 s⁻¹
Release rate, depending on the concentration, first-order kd [3, 11]: 0.011 s⁻¹
Release rate, diffusion controlled, Higuchi kd [3, 11]: 8.7 * 10^−0 s^−1/2
Release rate, not depending on the concentration, zero-order kd [3, 11]: 0.77 s⁻¹

More lines, main results first:

demonstrated stability until ([1]; pH 7.4): 72 h
Compound: NCCc1ccc(O)c(O)c1 [DOPA, dopamine]

stability of KYNA ([1]; HEPES (150 mM NaCl), 0 h): stable
stability of KYNA ([1]; HEPES (150 mM NaCl), 24 h): unstable
stability of KYNA ([1]; HEPES (150 mM NaCl), 48 h): unstable
stability of KYNA ([1]; HEPES (150 mM NaCl), 72 h): unstable
stability of KYNA ([1]; HEPES (150 mM NaCl), 96 h): unstable
demonstrated stability until ([1]; PBS buffer at pH=7.4 (physiological solution), release tests of IBU): 96 h
demonstrated stability until ([1]; PBS buffer at pH=7.4 (physiological solution), release tests of KYNA): 72 h
degrading of KYNA as a result of the buffers ([1]; in buffer): already starts in the first hours
stability of KYNA ([1]; pH 3 (MQ + 150 mM NaCl), 0 h): stable
stability of KYNA ([1]; pH 3 (MQ + 150 mM NaCl), 24 h): stable
stability of KYNA ([1]; pH 3 (MQ + 150 mM NaCl), 48 h): stable
stability of KYNA ([1]; pH 3 (MQ + 150 mM NaCl), 72 h): stable
stability of KYNA ([1]; pH 3 (MQ + 150 mM NaCl), 96 h): unstable
stability of KYNA ([1]; pH 3 (MQ), 0 h): stable
stability of KYNA ([1]; pH 3 (MQ), 24 h): stable
stability of KYNA ([1]; pH 3 (MQ), 48 h): stable
stability of KYNA ([1]; pH 3 (MQ), 72 h): stable
stability of KYNA ([1]; pH 3 (MQ), 96 h): unstable
stability of KYNA ([1]; pH 4 (MQ + 150 mM NaCl), 0 h): stable
stability of KYNA ([1]; pH 4 (MQ + 150 mM NaCl), 24 h): stable
stability of KYNA ([1]; pH 4 (MQ + 150 mM NaCl), 48 h): stable
stability of KYNA ([1]; pH 4 (MQ + 150 mM NaCl), 72 h): stable
stability of KYNA ([1]; pH 4 (MQ + 150 mM NaCl), 96 h): unstable
stability of KYNA ([1]; pH 4 (MQ), 0 h): stable
stability of KYNA ([1]; pH 4 (MQ), 24 h): stable
stability of KYNA ([1]; pH 4 (MQ), 48 h): stable
stability of KYNA ([1]; pH 4 (MQ), 72 h): unstable
stability of KYNA ([1]; pH 4 (MQ), 96 h): unstable
stability of KYNA ([1]; pH 5 (MQ + 150 mM NaCl), 0 h): stable
stability of KYNA ([1]; pH 5 (MQ + 150 mM NaCl), 24 h): stable
stability of KYNA ([1]; pH 5 (MQ + 150 mM NaCl), 48 h): unstable
stability of KYNA ([1]; pH 5 (MQ + 150 mM NaCl), 72 h): unstable
stability of KYNA ([1]; pH 5 (MQ + 150 mM NaCl), 96 h): unstable
stability of KYNA ([1]; pH 5 (MQ), 0 h): stable
stability of KYNA ([1]; pH 5 (MQ), 24 h): stable
stability of KYNA ([1]; pH 5 (MQ), 48 h): stable
stability of KYNA ([1]; pH 5 (MQ), 72 h): stable
stability of KYNA ([1]; pH 5 (MQ), 96 h): unstable
stability of KYNA ([1]; pH 6 (MQ + 150 mM NaCl), 0 h): stable
stability of KYNA ([1]; pH 6 (MQ + 150 mM NaCl), 24 h): stable
stability of KYNA ([1]; pH 6 (MQ + 150 mM NaCl), 48 h): stable
stability of KYNA ([1]; pH 6 (MQ + 150 mM NaCl), 72 h): stable
stability of KYNA ([1]; pH 6 (MQ + 150 mM NaCl), 96 h): unstable
stability of KYNA ([1]; pH 6 (MQ), 0 h): stable
stability of KYNA ([1]; pH 6 (MQ), 24 h): stable
stability of KYNA ([1]; pH 6 (MQ), 48 h): stable
stability of KYNA ([1]; pH 6 (MQ), 72 h): unstable
stability of KYNA ([1]; pH 6 (MQ), 96 h): unstable
stability of KYNA ([1]; pH 7 (MQ + 150 mM NaCl), 0 h): stable
stability of KYNA ([1]; pH 7 (MQ + 150 mM NaCl), 24 h): stable
stability of KYNA ([1]; pH 7 (MQ + 150 mM NaCl), 48 h): stable
stability of KYNA ([1]; pH 7 (MQ + 150 mM NaCl), 72 h): stable
stability of KYNA ([1]; pH 7 (MQ + 150 mM NaCl), 96 h): unstable
stability of KYNA ([1]; pH 7 (MQ), 0 h): stable
stability of KYNA ([1]; pH 7 (MQ), 24 h): stable
stability of KYNA ([1]; pH 7 (MQ), 48 h): stable
stability of KYNA ([1]; pH 7 (MQ), 72 h): unstable
stability of KYNA ([1]; pH 7 (MQ), 96 h): unstable
stability of KYNA ([1]; pH 8 (MQ + 150 mM NaCl), 0 h): stable
stability of KYNA ([1]; pH 8 (MQ + 150 mM NaCl), 24 h): stable
stability of KYNA ([1]; pH 8 (MQ + 150 mM NaCl), 48 h): stable
stability of KYNA ([1]; pH 8 (MQ + 150 mM NaCl), 72 h): stable
stability of KYNA ([1]; pH 8 (MQ + 150 mM NaCl), 96 h): unstable
stability of KYNA ([1]; pH 8 (MQ), 0 h): stable
stability of KYNA ([1]; pH 8 (MQ), 24 h): stable
stability of KYNA ([1]; pH 8 (MQ), 48 h): stable
stability of KYNA ([1]; pH 8 (MQ), 72 h): stable
stability of KYNA ([1]; pH 8 (MQ), 96 h): unstable
Papp at 1 h, 20 µM [5]: 3.71 ×10⁻⁶ cm/s
Compound: O=C(O)c1cc(=O)c2ccccc2[nH]1 [KYNA, kynurenic acid]
Release rate, depending on the concentration, first-order kd [3, 6]: 0.0079 s⁻¹
Release rate, diffusion controlled, Higuchi kd [3, 6]: 6.9 * 10^−0 s^−1/2
Release rate, not depending on the concentration, zero-order kd [3, 6]: 0.63 s⁻¹
Release rate, depending on the concentration, first-order kd [3, 7]: 0.0098 s⁻¹
Release rate, diffusion controlled, Higuchi kd [3, 7]: 7.0 * 10^−0 s^−1/2
Release rate, not depending on the concentration, zero-order kd [3, 7]: 0.0062 s⁻¹
Release rate, depending on the concentration, first-order kd [3, 8]: 0.0015 s⁻¹
Release rate, diffusion controlled, Higuchi kd [3, 8]: 4.9 * 10^−3 s^−1/2
Release rate, not depending on the concentration, zero-order kd [3, 8]: 0.0004 s⁻¹
Release rate, diffusion controlled, Higuchi kd [3, 9]: 1.2 * 10^−2 s^−1/2
Release rate, not depending on the concentration, zero-order kd [3, 9]: 0.001 s⁻¹
kinetic model that characterizes / best fits the release ([3]; in vitro release profiles): Higuchi model
change of amplitude of somatosensory evoked potentials [4]: no significant change
